Results from patent publication US5688767A, “Treatment of endotoxin-associated disorders with cationic peptides” (priority 1996, dated 1997).

Key:
[1] = Lethality of peptide alone in mice; type: in vivo
Gram-negative bacteria = assay: MIC range over a broad range of Gram-negative bacteria; type: cell-based; details: broad range of Gram-negative bacteria (Table 9)
Description: CEME and CEMA were able to kill a broad range of Gram-negative bacteria with MICs ranging from 1-16 μg/ml (Table 9). These bacteria included many of the life-threatening gram-negative pathogens associated with septicemia and endotoxic shock.
(§1) Bacteria included the Bort strain of E. coli (Bortolussi, et al., Inf. Immun., 25:293, 1979) that was originally derived from a case of neonatal meningitis, and which is therefore considered a relevant pathogenic strain to study, and the 0111:B4 strain of E. coli (kindly provided by Dr. D. Morrison) which is a standard source of endotoxin. (Kelly, et al., Inf. Immun., 59:4491, 1991). In addition, P. aeruginosa PA01 strain H103, P. aeruginosa M2, P. aeruginosa K799, Eschericha coli UB 1005, Enterobacter cloacae 218S, Salmonella typhimurium MS7953s, Klebsiella pneumoniae ATCC 13883, Xanthomonas maltophilia ATCC 13637, and Acinetobacter calcoacetious 8193 were employed. LPS was obtained from E. coli Bort by the technique of Westphal and Jann, (Westphal, et al., Acad. Press, Inc. NY., 5:83) and from P. aeruginosa H103 by the method of Darveau and Hancock, (Darveau, et al., J. Bacteriol, 155:831, […]). E. coli 0111:B4 LPS was purchased from Sigma.

S. aureus = assay: microbe, parasite or virus in culture; type: cell-based, Staphylococcus aureus; details: fragments of CEMA, strain not given
Description: (§2) The minimum inhibitory concentrations of (MIC) of CEME, CEMA and melittin were determined for a number of different bacteria (Table 2). Briefly, cells were grown overnight at 37° C. in LB-S (Luria broth without any salt supplement) and diluted one in 10,000 in the same medium to give concentrations of about 10^4 to 10^5 CFU/ml. The broth dilutions were set up in a 96 well microtiter plate by putting 200 μl of LB-S containing the initial concentration of antibiotic or compound in column 1 and 100 μl of the same medium in columns 2-12. The compounds were diluted by taking 100 μl of broth from column 1 and mixing it with column 2, resulting in a one in two dilution. This was continued to column 10. Finally, 10 μl of bacteria were pipetted into columns 1-11, and the plates incubated overnight at 37° C. The next day the plates were scored for growth in the wells, and the MIC determined.

E. coli = assay: microbe, parasite or virus in culture; type: cell-based, Escherichia coli; details: fragments of CEMA, strain not given
Description: as §2, §1

Candida albicans = assay: MIC, same assay; type: cell-based; details: fragments of CEMA
P. aeruginosa = assay: microbe, parasite or virus in culture; type: cell-based, Pseudomonas aeruginosa; details: fragments of CEMA, strain not given
Description: as §2, §1

E. coli strain DC2 = assay: Antibacterial activity on acid-urea gel overlaid with bacteria; type: cell-based, Escherichia coli; details: ≈10^5 E. coli strain DC2, overnight at 37° C.
Description: A sample of the partially purified CEME protein was electrophoresed on a 15% acid-urea gel, which separates proteins based on charge and mass (Panyim and Chalkey, Arch. Biochem. Biophys., 130:337, 1969). The pH of the buffer is acidic (≈pH 5.0) and the polarity is reversed such that proteins migrate to the cathode. Therefore, the small cationic peptides run relatively quickly through the gel and thus can be easily identified. Antibacterial activity was tested as previously described (Hultmark, Eur. J. Biochem., 106:7, 1980). The gel was incubated in Mueller Hinton broth+0.2M NaPO4 pH 7.4 for 1 hr. It was overlaid with 5 mls of the same media containing 0.6% agar and ≈10^5 E. coli strain DC2, and then again with 5 ml of the same media containing only 0.6% agar. […] Melittin is used as a positive control due to its antibacterial activity and similarity in size and PI values.

[2] = tested on: P. aeruginosa H309 or E. cloacae 218R1; type: cell-based, Pseudomonas aeruginosa; Enterobacter cloacae; details: 10 μM NPN
Description: The second assay determined membrane permeability by the ability of 1-N-phenylnaphthylamine(NPN), a small fluorescent probe, to insert itself into the membrane. Normally, very little NPN can penetrate the outer membrane, but in the presence of a membrane permeabilizer it can insert into the hydrophobic membrane resulting in an increase in fluorescence (FIGS. 7 and 8). This N-phenylnaphthylamine uptake assay was previously described by Loh, et al., Antimicrobial Agents and Chemo., 26:546, 1984. Cells were prepared exactly the same as for the lysozyme lysis assay. 1-N-phenylnaphthylamine(NPN) was dissolved in acetone at a concentration of 500 μM. NPN fluorescence was measured in a Perkin-Elmer 650-10S fluorescent spectrophotometer using excitation and emission wavelengths set to 350 nm and 420 nm respectively, with slit widths of 5 nm. The assay was standardized by adding 20 μl of NPN (final concentration of 10 μM) and 10 μl of 0.64 mg/ml of polymyxin B (final concentration of 6.4 μg/ml) into 1 ml of cells, and adjusting the resulting fluorescence to read 90% deflection (90 arbitrary units). Various compounds were tested by adding 10 μl of different concentrations to a cuvette containing 1 ml of cells and 10 μM NPN. Permeabilizing activity was designated as the total fluorescence minus the fluorescence due to NPN alone. Following the fluorescence measurement, the OD600 of the cells was taken to ensure no significant cell lysis had occurred.

[3] = tested on: P. aeruginosa H309 or E. cloacae 218R1; assay: Lysozyme lysis assay (outer membrane permeabilization); type: cell-based, Pseudomonas aeruginosa; Enterobacter cloacae; details: 50 μg/ml lysozyme, varying concentrations of compound
Description: Membrane permeabilization by polycationic compounds was measured in two different assays. The first assay measured membrane disruption by the ability of lysozyme to reach the periplasm and cause cell lysis. […] The uptake of lysozyme into whole cells due to membrane permeabilization by various compounds was previously described in Hancock, et al., Antimicrobial Agents and Chemo., 19:777, 1981. Overnight cultures of P. aeruginosa H309 or E. cloacae 218R1 grown in LB-S were diluted 1 in 50 in fresh medium and grown to an OD600 =0.5-0.6. The cells were harvested in a Silencer H-103N clinical centrifuge at 1800 g for 10 min, washed once with one volume of assay buffer (5 mM HEPES pH 7.2, 5 mM KCN), and resuspended in the same buffer to an OD600 of 0.5. Assays consisted of 600 μl of cells with 50 μg/ml of chicken egg white lysozyme and varying concentrations of cationic compounds. Cell lysis was measured as a decrease in the OD600 in a Perkin-Elmer dual beam spectrophotometer. Parallel experiments performed without lysozyme enabled the measurement of the lytic activity of the compounds themselves. To test whether or not permeability to lysozyme could be inhibited by divalent cations, various concentrations of MgCl2 were added to the assay after the addition of lysozyme and before the addition of the test compound.

## CC[C@H](C)[C@H](NC(=O)CNC(=O)[C@@H](NC(=O)[C@H](CCCCN)NC(=O)[C@H](CCCCN)NC(=O)[C@H](Cc1ccccc1)NC(=O)[C@H](CC(C)C)NC(=O)[C@H](CCCCN)NC(=O)[C@H](Cc1c[nH]c2ccccc12)NC(=O)[C@@H](N)CCCCN)[C@@H](C)CC)C(=O)NCC(=O)N[C@@H](C)C(=O)N[C@H](C(=O)N[C@@H](CC(C)C)C(=O)N[C@@H](CCCCN)C(=O)N[C@H](C(=O)N[C@@H](CC(C)C)C(=O)N[C@H](C(=O)N[C@H](C(=O)NCC(=O)N[C@@H](CC(C)C)C(=O)N1CCC[C@H]1C(=O)N[C@@H](C)C(=O)N[C@@H](CC(C)C)C(=O)N[C@H](C(=O)N[C@@H](CO)C(=O)O)[C@@H](C)CC)[C@@H](C)O)[C@@H](C)O)C(C)C)C(C)C [CEME]
[1]; 200 μg (8.7 mg/kg) alone
  survival of mice given peptide alone: survived
[1]; no LPS, peptide 200 ug
  % Mortality: 0%
  dead/total: 0/5
Gram-negative bacteria
  MICs, range over strains: 1 to 16 µg/mL

## CC[C@H](C)[C@H](NC(=O)CN)C(=O)NCC(=O)N[C@@H](C)C(=O)N[C@H](C(=O)N[C@@H](CC(C)C)C(=O)N[C@@H](CCCCN)C(=O)N[C@H](C(=O)N[C@@H](CC(C)C)C(=O)N[C@H](C(=O)N[C@H](C(=O)NCC(=O)N[C@@H](CC(C)C)C(=O)N1CCC[C@H]1C(=O)N[C@@H](C)C(=O)N[C@@H](CC(C)C)C(=O)N[C@@H](CCCCN)C(=O)N[C@@H](CC(C)C)C(=O)N[C@H](C(=O)N[C@@H](CCCCN)C(=O)O)[C@@H](C)O)[C@@H](C)O)[C@@H](C)O)C(C)C)C(C)C [MA]
S. aureus
  MIC: greater than 64 ug/ml
E. coli
  MIC: greater than 64 ug/ml
Candida albicans
  MIC: greater than 64 ug/ml
P. aeruginosa
  MIC: greater than 64 ug/ml

## CC[C@H](C)[C@H](NC(=O)CN)C(=O)NCC(=O)N[C@@H](C)C(=O)N[C@H](C(=O)N[C@@H](CC(C)C)C(=O)N[C@@H](CCCCN)C(=O)N[C@H](C(=O)N[C@@H](CC(C)C)C(=O)N[C@H](C(=O)N[C@H](C(=O)NCC(=O)N[C@@H](CC(C)C)C(=O)N1CCC[C@H]1C(=O)N[C@@H](C)C(=O)N[C@@H](CC(C)C)C(=O)N[C@H](C(=O)N[C@@H](CO)C(=O)N[C@@H](Cc1c[nH]c2ccccc12)C(=O)N[C@H](C(=O)N[C@@H](CCCCN)C(=O)N[C@@H](CCCNC(=N)N)C(=O)N[C@@H](CCCCN)C(=O)N[C@@H](CCCNC(=N)N)C(=O)N[C@@H](CCC(N)=O)C(=O)N[C@@H](CCC(N)=O)C(N)=O)[C@@H](C)CC)[C@@H](C)CC)[C@@H](C)O)[C@@H](C)O)C(C)C)C(C)C [Melittin, melittin]
E. coli strain DC2
  antibacterial activity on overlaid gel: zones of clearing
[2]
  activity in opening up the membrane to NPN: less active
[3]
  permeabilization of outer membrane to lysozyme: did not appear to be a good permeabilizer
